Like-named read-outs stand apart in the source and are kept apart here.
Key:
stereotypy:hyperactivity = stereotypy:hyperactivity ED50 ratio (typical versus atypical neuroleptic profile); type: in vivo, male Sprague-Dawley rats; conditions: for neuroleptic profile: in words, stereotypy versus hyperactivity models; for Ratio: stereotypy:hyperactivity ED50 ratio, greater than ten considered clozapine like atypical
From the text: The ratios of the ED50 's determined in the assay systems described above are predictive of typical versus atypical profiles for potential neuroleptic candidates.
A compound encompassed within the disclosure of French patent application No. 71.27825 was synthesized and evaluated using the assays described above. This prior art compound is designated Compound A for purposes of comparison and has the formula: [drawing 12]

[1] = cited from earlier work
[2] = tested on: apomorphine-induced stereotypy; test: Antagonism of Apomorphine-Induced Stereotypy; conditions: Rattus norvegicus, sc, 1 h, read-out: ED50 Stereotypy
[3] = tested on: amphetamine-induced hyperactivity; conditions: Rattus norvegicus, sc, 1 h, read-out: ED50 Hyperactivity

Compound	neuroleptic profile (stereotypy:hyperactivity)	Ratio (stereotypy:hyperactivity)	incidence of extrapyramidal side effects ([1]; in words, than classical neuroleptics, background)	ED50 [2] [mg/kg]	ED50 [3] [mg/kg]	incidence of extrapyramidal side effects ([1]; in vivo)
CN1CCN(C2=Nc3cc(Cl)ccc3Nc3ccccc32)CC1 [Clozapine]	clozapine-like atypical antipsychotic profiles	18	lesser incidence of extrapyramidal side effects than classical neuroleptics	26.9	1.49	
CN1C2CCC1CN(C1Cc3cc(Cl)ccc3Oc3ccccc31)C2.O=C(O)/C=C\C(=O)O (stereo not shown) [Compound 1, 3-(2-Chloro-10,11-dihydro-dibenzo[b,f]oxepin-10-yl)-8-methyl-3,8-diazabicyclo(3.2.1)octane monomaleate]		> 48		> 40	0.84	
Cc1ccc2c(c1)CC(N1CC3CCC(C1)N3C)c1ccccc1O2.O=C(O)/C=C\C(=O)O (stereo not shown) [Compound 2, 3-(2-Methyl-10,11-dihydro-dibenzo[b,f]oxepin-10-yl)-8-methyl-3,8-diazabicyclo(3.2.1)octane monomaleate]		31		12.7	0.41	
CN1C2CCC1CN(C1Cc3cc(Br)ccc3Oc3ccccc31)C2.O=C(O)/C=C\C(=O)O (stereo not shown) [Compound 3, 3-(2-Bromo-10,11-dihydro-dibenzo[b,f]oxepin-10-yl)-8-methyl-3,8-diazabicyclo(3.2.1)octane monomaleate]		> 10		> 22	2.15	
O=C(CCCN1CCC(O)(c2ccc(Cl)cc2)CC1)c1ccc(F)cc1 [Haloperidol]		0.94		0.036	0.038	
CN1C2CCC1CN(C1Cc3ccccc3Oc3ccc(Cl)cc31)C2 (stereo not shown) [Prior Art Cpd A]	typical neuroleptic profile which is comparable to conventional neuroleptic agents	3.1		0.69	0.22	
CN1CCN([C@@H]2Cc3ccccc3Sc3ccc(Cl)cc32)CC1 [R-Octoclothepin]		4.4		0.18	0.8	
CCN1CCC[C@H]1CNC(=O)c1c(O)c(Cl)cc(Cl)c1OC [Raclopride]		0.92		0.044	0.048	
CCN1CCCC1CNC(=O)c1cc(S(N)(=O)=O)ccc1OC (stereo not shown) [sulpiride]						lesser incidence of extrapyramidal side effects than classical neuroleptics

— patent publication US5952501A, “Certain tricyclic substituted diazabicylo[3.2.1] octane derivatives” (priority 1995, dated 1999)
